These results are taken from PMC4336141, “Repurposing Auranofin as a Lead Candidate for Treatment of Lymphatic Filariasis and Onchocerciasis” (PLoS Neglected Tropical Diseases, 2015).

Test [1] has as its system L. loa microfilariae. Briefly: Loa loa microfilariae motility in vitro. It counts as cell-based. Particulars: Day 5. The method, then:
Loa loa microfilariae were purified from the blood of a heavily infected subject (having approximately 10,000 microfilariae/mL of blood) using Percoll (GE Healthcare, Piscataway, NJ) gradient centrifugation. Venous blood (10 mL) was collected from consenting, infected individuals in an EDTA tube. The blood was layered on a step-wise Percoll gradient (46% and 43% Percoll prepared in CCM) followed by centrifugation at 400 rcf for 20 minutes. The L. loa microfilariae were recovered in the 43% layer, washed 3 times in CCM and counted.
(§1) Microfilariae (10–15 per well) were cultured in 96-well culture plates in duplicate under the same conditions and drug concentrations as were used for the adult O. ochengi, except that 10 μg/mL ivermectin was used as a positive control. Microfilariae viability was visually scored based on motility reduction using the same scale described above for adult male O. ochengi. Scores were recorded every 24 hours after the addition of drugs for 5 days using an inverted microscope.

The test system of test [2] is O. ochengi microfilariae. Briefly: Onchocerca ochengi microfilariae motility in vitro. It counts as cell-based. Particulars: Day 5. The method, then:
O. ochengi microfilariae were obtained from the umbilical skin of infected cattle and cultured on confluent monkey kidney epithelial cells for drug testing as previously described.
as §1

Test [3] relates to B. pahangi. Briefly: Worm retrieval from B. pahangi infected gerbils treated orally. The settings on record: for reduction in worm burden: 48 doses over 28 days, vs vehicle. The test is classed as in vivo, Mongolian gerbils (Meriones unguiculatus). The method, then: Animal studies were performed under IACUC approval #AN085723–02 to test the efficacy of auranofin in vivo. Male Mongolian gerbils (Meriones unguiculatus, Charles River Laboratories International, Inc., Wilmington, MA) were injected intraperitoneally (IP) with 300 B. pahangi L3 (Filariatech, Inc., Athens, GA) and treated 3 months post-infection. Auranofin was dissolved in 100% ethanol at 4 mg/mL and mixed 1:1 with PBS. Vehicle doses consisted of the same mixture of ethanol and PBS but without auranofin. Doses (up to 200 μl) were given to gerbils orally at 5 mg/kg body weight, BID weekdays and SID weekends for a total of 48 doses over 4 weeks.
Two studies (Study 1 and Study 2) were conducted using the same protocols and the same dosing schedule except that in Study 1, two gerbils from the auranofin treatment group and two gerbils from the vehicle group were treated for 14 days and were necropsied 2 hours after their last dose (interim necropsy) to determine plasma gold levels (from auranofin). The remaining gerbils in Study 1 were treated for 28 days and were necropsied 11, 14, or 16 days after the end of dosing. In Study 2, all gerbils were treated for 28 days and were necropsied 16 days after the end of dosing. For both of these in vivo studies, worms were collected from the gerbil’s peritoneal cavity, counted, sexed and examined under a dissecting microscope. For each study a two-tailed Student’s T-test assuming equal variance was conducted using Microsoft Excel to determine the statistical significance of the difference in mean worm retrieval between the auranofin treated and vehicle treated groups. Gerbil blood was collected by cardiac puncture and plasma was sent to NMS Labs, Willow Grove, PA to determine plasma gold levels (elemental gold analysis) by graphite furnace atomic absorption spectroscopy.

The test system of test [4] is adult female O. ochengi. Briefly: Adult female Onchocerca ochengi viability, MTT/formazan assay in vitro. The test is classed as cell-based. Particulars: Day 7, MTT/formazan. How it is done:
Cows that had grazed in northern Cameroon where O. ochengi is highly endemic were brought to abattoirs located in Douala, Cameroon. Subcutaneous nodules containing adult O. ochengi worms were identified on the umbilical skin of infected cows. Adult worm masses containing one viable, adult female and zero to several adult males were carefully recovered by dissection of the nodule with a sterile razor blade. The masses were then incubated in 4 mL of complete culture medium (CCM), which was comprised of RPMI-1640 (Sigma-Aldrich), 5% newborn calf serum, 200 units/mL penicillin, 200 μg/mL streptomycin and 2.5 μg/mL amphotericin B (Sigma-Aldrich), in standard 12-well culture plates. […] Adult female worm viability was assessed on day 7 by the standard MTT/formazan assay in which each nodular mass was placed in a well of a 48-well microtiter plate containing 500 μL of 0.5 mg/mL MTT (Sigma-Aldrich) in incomplete culture medium, and then incubated in the dark at 37°C for 30 minutes. Adult female worm viability was evaluated visually by the extent to which the female worm mass was stained with MTT. Mean percent inhibition of formazan formation was calculated relative to the negative control worm masses after 7 days in culture. […]

In test [5] the target is glutathione reductase. On the set-up: method as in PMID 9685351. The settings on record: higher IC50; cited from earlier work.
The mark [6] stands for this setting: Study 1 interim necropsy, 14 days of treatment.

For the molecule `CC[PH](CC)(CC)[Au][S][C@@H]1O[C@H](COC(C)=O)[C@@H](OC(C)=O)[C@H](OC(C)=O)[C@H]1OC(C)=O` [auranofin, 2,3,4,6-tetra-O-acetyl-1-thio-beta-D-glucopyranosato-S (triethylphosphine) gold], the IC50 (commonly the concentration that inhibits the measured activity by half) in test [1] stood at 12800 nM; in test [2], 3000 nM; in test [4] it was 300 nM. Also, the “reduction in worm burden” value is on record as 58% in test [3] (Study 1, 5 mg/kg oral, not statistically significant (p > 0.05)) and 91% in test [3] (Study 2, 5 mg/kg oral, necropsy 16 days after end of dosing, p = 0.01). Besides, the “average number of worms” value in test [3] (Study 1, all treated animals (n = 9), vehicle 9.4) is given as 4.0 worms. In test [3] (setting [6]), this molecule came in with a female worms of 7. Further, the male worms in test [3] (setting [6]) is on record as 4. The “total number of worms” value in test [3] (Study 1 interim necropsy, 14 days of treatment, two gerbils, vehicle 43) was 11. In test [3] (Study 2), this molecule gave a male worms recovered of 11. The female worms recovered in test [3] (Study 2, remaining female encapsulated with host tissue) was found to be 1. For the same molecule, the “mean worms per gerbil” value in test [3] (Study 2, vehicle 32) was 3 worms per gerbil. The same molecule displayed a total worms recovered in test [3] (Study 2, vehicle 161) of 12. For the same molecule, in test [5], the “IC50 relative to TrxR isolated from human placenta” value was “about 1000 fold”.
